The record followed here is PubChem BioAssay AID179 (DTP/NCI, 2004).

This assay concerns CEM cells HIV-1 protection, formazan growth assay. As to the kind of experiment: NCI AIDS Antiviral Assay. To be noted: for IC50: measured here: growth of uninfected CEM cells. In a few lines: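 Protection of CEM cells against HIV-1 measured as cell growth via soluble formazan read-out, with five concentrations tested on both infected and uninfected cells; failure to protect may reflect toxicity.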

Calls of active or inactive are those of the source.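 Rule for the calls: active = compounds giving half or more protection of infected cells from virus-caused growth loss, again on retest; inactive = the rest.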 Where a SMILES comes first, the peptide text is derived from it. [ ]: non-standard residue; d: D form. The star is where a group is joined. ξ: configuration not given here. ξD = NC(CC(=O)O)C(=O)O; Boc = CC(C)(C)OC(=O)*; Aib = CC(C)(N)C(=O)O; OtBu = CC(C)(C)O*

A word on the EC50: it is the concentration that produces a half-maximal response. In general, IC50 refers to the point on the concentration scale where inhibition reaches its midpoint. Read a low IC50 as higher potency. With `Cc1c(O)c(OC2OC(CO)C(O)C(O)C2O)cc2c1CC[C@@H]1C2(C)C(=O)C[C@]2(C)[C@@H]([C@@](C)(O)C3CCC(C)(C)O3)[C@H](O)C[C@@]12C` (stereo partly specified), the EC50 is above 200 µM and the IC50 was above 200 µM.

Consider `Cn1ncnc1CCc1ccccc1`, for which the EC50 was above 32.4 µM and the IC50 is above 32.4 µM.

For the compound `C/C(=C\Cc1ccc(F)cc1)CCCCCC/C(C)=C/Cc1ccc(F)cc1`, the EC50 was above 200 µM and the IC50 is 22.4 µM.

As to `CC(C)C[CH2][Ge]([CH2]CC(C)C)([CH2]CC(C)C)[CH2]CC(C)C`, the EC50 was above 200 µM and the IC50 is above 200 µM.

On to `CCSc1nc(-c2ccc(OC)cc2)c(C#N)c(=O)n1C1OCC(OC(C)=O)C(OC(C)=O)C1OC(C)=O` (stereo unspecified), for which the EC50 is above 200 µM and the IC50 is above 200 µM.

Compound `Nc1ccc(N=Nc2ccc(C(=O)O)cc2)c(N)c1N=Nc1ccc(N=Nc2ccc(O)c(C(=O)O)c2)cc1` showed an EC50 of 49 µM and a half-maximal inhibitory concentration (IC50) above 100 µM.

On to `Cc1oc2nc(N(C)C)nc(NN)c2c1C`, for which the result was inactive.

On to `Cn1c(=O)c2[nH]c(Nc3ccccc3)nc2n(C)c1=O`, for which the EC50 was above 200 µM and the IC50 stood at 120 µM.

For the compound `CC(C)c1cccc(C(C)C)c1NC(=O)C(=O)C1CCC2=C(Sc3ccccc3N2)C1=O` (stereo unspecified), the EC50 is above 204 µM and the IC50 amounted to 2.24 µM.

On to `CN1C(=Nc2ccccc2)SC1=Nc1ccccc1`, for which the result was inactive.

For `O=C(c1ccccc1)C1C(c2ccccc2)SC(c2ccccc2)CC1(O)c1ccccc1` (stereo unspecified), the EC50 is above 151 µM and the 50% inhibitory concentration (IC50) stood at 20.9 µM.

In the case of `CC(=O)NC1=C(C)C(=O)c2c(nc3n2CCC3OC(=O)c2ccccc2)C1=O` (stereo unspecified), the EC50 was above 200 µM and the IC50 was 0.977 µM.

`COC(=O)CCC(=O)N1Cc2cc(C)ccc2N(C(=O)CCC(=O)OC)Cc2cc(C)ccc21`: the outcome was inactive.

With `C=CCNC(=S)N1CC(C)C(=O)Nc2ccccc21` (stereo unspecified), the EC50 is above 661 µM and the IC50 is above 661 µM.

In the case of `O=CSC(=Nc1ccc(Cl)cc1)NC(=O)COc1ccc(Cl)cc1`, the EC50 was above 148 µM and the IC50 is above 100 µM.

`O=[N+]([O-])c1cccc2nc3ccccc3c(NCCCCNc3c4ccccc4nc4cccc([N+](=O)[O-])c34)c12`: the EC50 is above 0.1 µM and the IC50 worked out at 0.0162 µM.

As for `CCOC(=O)C(Cc1ccccc1)P(=O)(OCC)OCC` (stereo unspecified), the EC50 is above 200 µM and the IC50 was determined as 158 µM.

As to `C1Cc2nnnn2C1`, the EC50 is above 2290 µM and the IC50 is above 2290 µM.

As to `COc1ccc(-n2c(C)nc3ccc(NC(=S)Nc4ccccc4)cc3c2=O)cc1`, the EC50 was above 200 µM and the IC50 is above 200 µM.

On to `COC(=O)/C=C(\C(=O)OC)c1c2c3c(cc(OC)c(OC)c3c3ccccc13)CCN2C`, for which the outcome was inactive.

Take `CSC(=Nc1ccccc1)c1c(C)[nH]n(-c2ccccc2)c1=O`: the EC50 was above 200 µM and the IC50 came to 126 µM.

Take `COC(=O)C(C([CH-][N+](=O)[O-])c1ccccc1)[P+](c1ccccc1)(c1ccccc1)c1ccccc1` (stereo unspecified): the EC50 was above 200 µM and the IC50 stood at 10.7 µM.

For `CC(=O)OCC1OC(Sc2nc(-c3ccccc3)c(C#N)c(=O)n2C2OC(COC(C)=O)C(OC(C)=O)C(OC(C)=O)C2OC(C)=O)C(OC(C)=O)C(OC(C)=O)C1OC(C)=O` (stereo unspecified), the EC50 was above 151 µM and the IC50 was found to be 19.5 µM.

`O=c1[nH]nc(-c2ccccc2)n1-c1cccc([N+](=O)[O-])c1`: the EC50 was above 200 µM and the 50% inhibitory concentration (IC50) is above 200 µM.

In the case of `CCOP(=O)(OCC)C(N)c1ccc(OC)cc1` (stereo unspecified), the EC50 is above 813 µM and the IC50 was above 813 µM.

As to `Clc1nc(NC23CC4CC(CC(C4)C2)C3)nc(NC23CC4CC(CC(C4)C2)C3)n1`, the EC50 is above 200 µM and the IC50 was 52.5 µM.

As to `COc1c(OC(C)=O)ccc(/C=C2\N=C(C)OC2=O)c1[N+](=O)[O-]`, the result was inactive.

As to `CC/C=C(\C(=C/CC)[N+](=O)[O-])[N+](=O)[O-]`, the EC50 was above 200 µM and the IC50 was 3.31 µM.

As to `COC(=O)[C@@H]1C[C@@H](OS(=O)(=O)c2ccc(C)cc2)CN1C(=O)OCc1ccccc1`, the result was inactive.

`COC(OC)[C@@H]1OC[C@@H](O)[C@@H]1n1cnc2c(N)ncnc21`: the EC50 is above 200 µM and the IC50 was above 200 µM.

For the compound `Nc1nc(Cl)c(CO)c(NCC2(CO)CC(CCc3ccccc3)C2)n1` (stereo unspecified), the EC50 was above 20 µM and the IC50 was 0.129 µM.

Turning to `Clc1ccc(N=Nc2nc3ccccc3nc2N=Nc2ccc(Cl)cc2Cl)c(Cl)c1`, the EC50 was above 0.794 µM and the IC50 is above 0.794 µM.

Take `O=C(CCCl)NNC1=NCCCN1`: the EC50 is above 200 µM and the IC50 is above 200 µM.

Consider `C[N+](C)(C)CC(=O)N/N=C(\Cc1nc2ccc([N+](=O)[O-])cc2[nH]c1=O)C(=O)Nc1nc2ccc([N+](=O)[O-])cc2s1`, for which the EC50 was above 42.7 µM and the IC50 is above 42.7 µM.

For `C/C(Cl)=N/OC(=O)Nc1ccc(F)c([N+](=O)[O-])c1`, the EC50 is above 200 µM and the IC50 was found to be 3.24 µM.

For the compound `C/C(=N/NC(N)=S)C(CN1CCOCC1)C(C1=C(O)c2ccccc2OC1)c1ccccc1` (stereo unspecified), the EC50 was above 37.2 µM and the IC50 is above 37.2 µM.

`NC(N)=NS(=O)(=O)c1ccc(NC(=O)c2cccc3c(NNc4ccc(C(=O)O)cc4)c4ccccc4nc23)cc1`: the EC50 is above 200 µM and the IC50 amounted to 33.9 µM.

On to `COC1OC(CO)C(NC2=N[C@@H]3[C@H](O2)[C@@H](O)[C@H](O)[C@]3(O)CO)C(O)C1O` (stereo partly specified), for which the EC50 was above 50.1 µM and the IC50 was above 50.1 µM.

Regarding `O=C1CC2(c3ccccc3)CCCCC2=NN1` (stereo unspecified), the EC50 is above 200 µM and the IC50 was above 200 µM.

Turning to `C[C@]12CC[C@H]3[C@@H](C[C@@H](O)[C@]45C[C@@H]4CC[C@]35C)[C@@H]1CC[C@@]21C=CC(=O)O1`, the EC50 is above 200 µM and the IC50 amounted to 95.5 µM.

On to `CN(C)CCNC(=O)C(C)(C)Oc1ccc(C(=O)c2ccc(Cl)cc2)cc1Cl`, for which the EC50 was above 200 µM and the IC50 turned out to be 9.55 µM.

For `O=C1/C(=C/c2ccc(Cl)cc2)NC(=S)N1CN1CCOCC1`, the EC50 is above 200 µM and the IC50 came out at 32.4 µM.

In the case of `S=C1NC2=C(COC/C2=C\c2ccccc2Cl)C(c2ccccc2Cl)N1` (stereo unspecified), the outcome was inactive.

With `CCOC(=O)C(/C=N/C(N)=S)=C(/O)c1ccccc1`, the EC50 was above 200 µM and the IC50 was above 200 µM.

For `c1cnc2c(c1)Oc1nc3ccccc3nc1S2`, the EC50 is above 91.2 µM and the IC50 stood at 14.5 µM.

As to `C=C(C)[C@@H]1CC[C@]2(C(=O)O)CC[C@]3(C)[C@H](CCC4[C@@]5(C)CC[C@H](C(=O)/C=C/c6ccc(O)c(O)c6)C(C)(C)[C@@H]5CC[C@]43C)[C@@H]12` (stereo partly specified), the EC50 was above 200 µM and the IC50 was 2.29 µM.

With `CCOP(=O)(OCC)/C(C#N)=C/c1cnc(C)[nH]1`, the EC50 was above 200 µM and the IC50 was above 200 µM.

Turning to `CCOC(=O)C(C(=O)OCC)C(=S)NC1OC(COC(C)=O)C(OC(C)=O)C(OC(C)=O)C1OC(C)=O` (stereo unspecified), the EC50 was above 200 µM and the IC50 was above 200 µM.

With `CC(=O)Nc1ccc(C(=O)NN2C(=O)C(Cl)C2c2ccc(Cl)cc2)cc1` (stereo unspecified), the EC50 was above 200 µM and the IC50 was above 200 µM.

As to `c1ccc(-c2[o+]c(-c3ccccc3)c(-c3ccccc3)c(-c3ccccc3)c2-c2ccccc2)cc1`, the outcome was inactive.

Turning to `[O-]c1c2c(nn1-c1ccc(F)cc1)c1ccccc1c[n+]2Cc1ccccc1`, the result was inactive.

Regarding `Cc1cc(Br)cc(C)c1NC(=O)C(=O)CC(=O)c1sc(-n2nc(-c3ccccc3)cc2-c2ccccc2)nc1C`, the outcome was inactive.

As for `NCCn1cnc2nc(NC(=O)c3ccccc3)[nH]c(=O)c21`, the EC50 is above 166 µM and the IC50 was found to be 91.2 µM.

With `CN=C(Nc1ccc(OC)c2ccccc12)SC`, the EC50 was above 200 µM and the IC50 was above 100 µM.

On to `Brc1ccc2[nH]cc(/C=N/N3CCCCCC3)c2c1`, for which the EC50 is above 112 µM and the IC50 is above 112 µM.

Consider `COC(=O)C(C)(C)NC(=O)C(C)(C)NC(=O)C(CC(=O)OC(C)(C)C)NC(=O)OC(C)(C)C` (stereo unspecified) (Boc-[ξD](OtBu)-[Aib]-[Aib]-OMe), for which the EC50 was above 200 µM and the IC50 was above 200 µM.

As for `Cc1cccc(-n2c(=S)[nH]c3c(sc(=O)n3-c3ccccc3C)c2=O)c1`, the EC50 was above 2 µM and the IC50 was above 2 µM.

In the case of `Cn1c(=Nc2ccc(Cl)cc2)sc2ccccc21`, the EC50 is above 200 µM and the IC50 was determined as 32.4 µM.

As to `O=[N+]([O-])c1ncnc2c1ncn2C1OC(CO)CC1F` (stereo unspecified), the EC50 is above 89.1 µM and the IC50 worked out at 28.2 µM.

As for `Cn1nc(-c2ccccc2)c2c(/C=C/c3ccc(F)cc3)onc2c1=O`, the EC50 is above 38.9 µM and the IC50 was above 38.9 µM.

With `Cn1c(=O)nc2n(-c3ccc(Cl)cc3Cl)c3ccccc3nc-2c1=O`, the result was inactive.

Regarding `CNc1ccc(OC)cc1S(=O)(=O)c1ccccc1[N+](=O)[O-]`, the EC50 was 148 µM and the IC50 was found to be 182 µM.

Turning to `CCC(C)(C(=O)O)C(=O)O`, the EC50 was above 200 µM and the IC50 was above 200 µM.

In the case of `Clc1cc(Cl)c(SSc2cc(Cl)c(Cl)cc2Cl)cc1Cl`, the EC50 was above 200 µM and the IC50 was above 200 µM.

`C=C1N(S(=O)(=O)c2ccc(C)cc2)C(=O)OCC12CCCC2`: the EC50 was above 200 µM and the IC50 was determined as 44.7 µM.

Turning to `O=S(=O)(c1ccc(NCSc2nc3ccccc3s2)cc1)c1ccc(NCSc2nc3ccccc3s2)cc1`, the EC50 is above 12 µM and the IC50 is above 12 µM.

Consider `CC1=NN(c2ccccc2)C(=O)/C1=C1\SS/C(=C2\C(=O)N(c3ccccc3)N=C2C)S1`, for which the EC50 was above 100 µM and the IC50 is above 100 µM.

For the compound `CCCNC(=O)NS(=O)(=O)c1ccc(Cl)cc1`, the outcome was inactive.

On to `NC(=O)C(=CNC(=S)Nc1ccccc1)C(N)=O`, for which the EC50 is above 200 µM and the IC50 was above 200 µM.
